Data: patent US20120134948A1, “ANTIMICROBIAL ETHER GUANIDINES” (EVONIK GOLDSCHMIDT GMBH, priority 2009, published 2012)

Assays:
Format in all cases: cell-based
[1] = tested on: Candida albicans; experiment: Antimicrobial activity, live microbial count (CFU) after contact in suspension
Description: (§1) The test microorganisms were inoculated from a strain culture into an agar-containing Caso medium (Merck, Darmstadt, Germany) and incubated for 24 h to 48 hours at 25 to 37° C., depending on the microorganism. A Caso slanted agar tube was inoculated with this preculture and again incubated under identical conditions.
(§2) To prepare the microorganism suspension to be tested, the microorganisms were washed off with 5 ml of phosphate-buffer saline (PBS, 50 mM potassium phosphate pH6, 100 mM NaCl), made up to 12.5 ml with PBS and resuspended by vortexing. To carry out the following test, this microorganism suspension was diluted to a microbial count of from 2U+5 to 8U+5.
(§3) The products to be tested made as a stock solution; they contained 10 g of ethanol, 0.68 g of macrogol glycerol hydroxystearate 40 (Cremophor® RH40, Omikron, Neckarwestheim, Germany), 1 g of the active substance to be tested and 38.32 g of double-distilled water. This solution was mixed with the microorganism suspension at a ratio of 1:1 in the test and gave an active substance concentration in the test of 1%. If it was intended to test a lower active substance concentration than 1%, the stock solution of the active substance was made up at a correspondingly lower concentration. The substances tested were the ether guanidine of example 1, and double distilled water by way of negative control.
(§4) To carry out the test, 1 ml-Eppendorf cubes were filled with 500 μl of microorganism suspension and with 500 μl stock solution and the contents were mixed carefully. After 20 min, 1 h and 3 h, respectively, 10 μl were removed from the tubes, and the live microbial count (colony-forming units, CFU) were determined by plating out various dilution of these test mixtures on Caso agar.

[2] = tested on: Corynebacterium xerosis; experiment: as above
Description: as §1, §2, §3, §4

[3] = tested on: Malassezia furfur; experiment: as above
Description: as §1, §2, §3, §4

[4] = tested on: Propionibacterium acnes; experiment: as above
Description: as §1, §2, §3, §4

[5] = tested on: Staphylococcus epidermidis; experiment: as above
Description: as §1, §2, §3, §4

[6] = tested on: Streptococcus mutans; experiment: as above
Description: as §1, §2, §3, §4

[7] = tested on: test microorganisms; experiment: Antimicrobial activity test, overall statement; settings: overall observation; microbial count in negative controls unchanged
Description: as §1, §2
The products to be tested made as a stock solution; they contained 10 g of ethanol, 0.68 g of macrogol glycerol hydroxystearate 40 (Cremophor® RH40, Omikron, Neckarwestheim, Germany), 1 g of the active substance to be tested and 38.32 g of double-distilled water. […]
as §4

[8] = 1% Ex. 1, 0 min (starting count)

Question: How did the “CFU/ml 0 min” value ([1]; 0.01% Ex. 1, 0 min (starting count)) turn out when “C12-15-oxypropylguanidinium chloride [Ex. 1]” was run?
Answer: 3.9E+5 CFU/ml

Question: What about the “CFU/ml 20 min” value ([1]; 0.01% Ex. 1, 20 min) of the same substance?
Answer: 4.7E+5 CFU/ml

Question: What about the “CFU/ml 60 min” value ([1]; 0.01% Ex. 1, 60 min) of the same substance?
Answer: 2.2E+5 CFU/ml

Question: What about the “CFU/ml 180 min” value ([1]; 0.01% Ex. 1, 180 min) of the same substance?
Answer: 6.1E+4 CFU/ml

Question: And the “CFU/ml 0 min” value ([1]; 0.1% Ex. 1, 0 min (starting count))?
Answer: 3.9E+5 CFU/ml

Question: What about the “CFU/ml 20 min” value ([1]; 0.1% Ex. 1, 20 min) of the same substance?
Answer: 5.5E+5 CFU/ml

Question: What about the “CFU/ml 60 min” value ([1]; 0.1% Ex. 1, 60 min) of the same substance?
Answer: 4.3E+4 CFU/ml

Question: And the “CFU/ml 180 min” value ([1]; 0.1% Ex. 1, 180 min)?
Answer: <2.0E+2 CFU/ml

Question: What about the “CFU/ml 0 min” value [1, 8] of the same substance?
Answer: 3.9E+5 CFU/ml

Question: And the “CFU/ml 20 min” value ([1]; 1% Ex. 1, 20 min)?
Answer: <2.0E+2 CFU/ml

Question: What about the “CFU/ml 60 min” value ([1]; 1% Ex. 1, 60 min) of the same substance?
Answer: <2.0E+2 CFU/ml

Question: What about the “CFU/ml 180 min” value ([1]; 1% Ex. 1, 180 min) of the same substance?
Answer: <2.0E+2 CFU/ml

Question: And the “CFU/ml 0 min” value [2, 8]?
Answer: 1.7E+5 CFU/ml

Question: And the “CFU/ml 20 min” value ([2]; 1% Ex. 1, 20 min)?
Answer: <2.0E+2 CFU/ml

Question: And the “CFU/ml 60 min” value ([2]; 1% Ex. 1, 60 min)?
Answer: <2.0E+2 CFU/ml

Question: And the “CFU/ml 180 min” value ([2]; 1% Ex. 1, 180 min)?
Answer: <2.0E+2 CFU/ml

Question: What about the “CFU/ml 0 min” value [3, 8] of the same substance?
Answer: 1.4E+5 CFU/ml

Question: And the “CFU/ml 20 min” value ([3]; 1% Ex. 1, 20 min)?
Answer: <2.0E+2 CFU/ml

Question: And the “CFU/ml 60 min” value ([3]; 1% Ex. 1, 60 min)?
Answer: <2.0E+2 CFU/ml

Question: What about the “CFU/ml 180 min” value ([3]; 1% Ex. 1, 180 min) of the same substance?
Answer: <2.0E+2 CFU/ml

Question: What about the “CFU/ml 0 min” value [4, 8] of the same substance?
Answer: 2.0E+5 CFU/ml

Question: And the “CFU/ml 20 min” value ([4]; 1% Ex. 1, 20 min)?
Answer: <2.0E+2 CFU/ml

Question: And the “CFU/ml 60 min” value ([4]; 1% Ex. 1, 60 min)?
Answer: <2.0E+2 CFU/ml

Question: What about the “CFU/ml 180 min” value ([4]; 1% Ex. 1, 180 min) of the same substance?
Answer: <2.0E+2 CFU/ml

Question: What about the “CFU/ml 0 min” value [5, 8] of the same substance?
Answer: 1.2E+5 CFU/ml

Question: What about the “CFU/ml 20 min” value ([5]; 1% Ex. 1, 20 min) of the same substance?
Answer: <2.0E+2 CFU/ml

Question: What about the “CFU/ml 60 min” value ([5]; 1% Ex. 1, 60 min) of the same substance?
Answer: <2.0E+2 CFU/ml

Question: What about the “CFU/ml 180 min” value ([5]; 1% Ex. 1, 180 min) of the same substance?
Answer: <2.0E+2 CFU/ml

Question: What about the “CFU/ml 0 min” value [6, 8] of the same substance?
Answer: 3.2E+5 CFU/ml

Question: What about the “CFU/ml 20 min” value ([6]; 1% Ex. 1, 20 min) of the same substance?
Answer: <2.0E+2 CFU/ml

Question: And the “CFU/ml 60 min” value ([6]; 1% Ex. 1, 60 min)?
Answer: <2.0E+2 CFU/ml

Question: What about the “CFU/ml 180 min” value ([6]; 1% Ex. 1, 180 min) of the same substance?
Answer: <2.0E+2 CFU/ml

Question: What about the antimicrobial activity [7] of the same substance?
Answer: pronounced antimicrobial activity
